Data reported in article PMC8745263 (International Journal of Molecular Sciences, 2021).
Entries after “also recorded” stand apart in the source; their conditions may differ. Square brackets hold non-standard residues; d marks the D form. Peptide text beside a SMILES is read from it. Met(O) = CS(=O)CC[C@H](N)C(=O)O

How the values were obtained:
[1] = target: T1, APEH partially purified from human blood cells (Homo sapiens, UniProt P13798); experiment: Treatment of peptides with APEH and assessment of proteolysis by LC-MS; format: biochemical; conditions: 10 nmol/200 μL peptide, APEH 0.7 μg, 37 °C, 48 h; for % fragment cleaved on carboxy side of H59 (Ac-...HTH, lacking LVQQA), percentage of the initial substrate / % fragment cleaved on carboxy side of Q62 (Ac-...HTHLVQ, lacking QA), percentage of the initial substrate / % intact peptide left after APEH exposure (percentage of the initial substrate): Tris-HCl 25 mM pH 7.5, EIC peak areas, average of three independent experiments; for % Degradation (overall % of peptide degraded upon exposure to APEH): sum of fragment % of Table 2(a), Tris-HCl 25 mM pH 7.5, N.D. = not degraded
T1 construct: incubated with APEH partially purified from human blood cells; from tissue; host or cells: human red blood cells (erythrocyte hemolysate from donors' blood)
T1 sequence (P13798 1-732): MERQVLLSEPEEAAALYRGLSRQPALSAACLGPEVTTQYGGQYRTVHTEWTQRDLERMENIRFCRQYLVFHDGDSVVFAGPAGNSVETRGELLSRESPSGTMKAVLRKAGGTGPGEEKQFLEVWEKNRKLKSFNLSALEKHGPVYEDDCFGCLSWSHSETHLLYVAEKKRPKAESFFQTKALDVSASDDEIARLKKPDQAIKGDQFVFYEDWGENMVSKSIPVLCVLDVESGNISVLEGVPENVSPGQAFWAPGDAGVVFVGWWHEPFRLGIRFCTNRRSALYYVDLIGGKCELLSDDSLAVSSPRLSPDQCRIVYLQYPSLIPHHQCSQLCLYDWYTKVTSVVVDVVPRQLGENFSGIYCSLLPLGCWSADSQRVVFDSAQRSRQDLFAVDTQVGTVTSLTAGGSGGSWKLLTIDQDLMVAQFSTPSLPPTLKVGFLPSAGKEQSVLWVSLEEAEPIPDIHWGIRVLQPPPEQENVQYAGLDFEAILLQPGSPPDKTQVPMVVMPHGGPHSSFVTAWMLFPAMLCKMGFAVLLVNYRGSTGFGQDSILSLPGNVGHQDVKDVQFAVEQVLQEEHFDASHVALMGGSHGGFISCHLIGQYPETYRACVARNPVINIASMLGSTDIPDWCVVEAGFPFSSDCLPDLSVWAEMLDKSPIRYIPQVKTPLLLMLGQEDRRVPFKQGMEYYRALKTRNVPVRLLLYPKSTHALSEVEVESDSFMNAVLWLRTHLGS
Description: In order to identify the potential cleavage sites of APEH on the oxidized GDF11[48-64], the peptide was incubated alone or in combination with the enzyme and the corresponding reaction mixtures were analyzed by LC-MS. The same experiments were performed using the non-oxidized analogues as control.
Blood samples were taken from donors using syringes with heparin. In accordance with ethical principles stated in the Declaration of Helsinki, as well as with approved national and international guidelines for human research, a written informed consent was obtained from participants. The erythrocytes were separated from the plasma by centrifugation at 1800× g for 5 min at 4 °C and washed twice with an isotonic solution (10 mM Tris-HCl pH 7.6, […]; 4 °C). Lysis of erythrocytes was carried out by incubation in hypotonic solution (25 mM Tris/HCl, pH 7.5) for 30 min on ice. The hemolysate was obtained by centrifugation of the lysate at 9200× g for 40 min at 4 °C. Then, the ‘soluble fraction’ was loaded onto a DEAE Sepharose Fast Flow column, connected to an AKTA FPLC system (Amersham Biosciences, Amersham, UK), previously equilibrated in 25 mM Tris-HCl (pH 7.5) (buffer A). The bound proteins were eluted using a linear ionic strength gradient (0–100%) of 1 M NaCl in buffer A at a flow rate of 1 mL min^−1. The active fractions were collected, pooled, dialyzed against 25 mM Tris-HCl pH 7.5 and loaded on a Superdex 200 PC 3.2/30 column (Pharmacia Biotech, Stockholm, Sweden) connected to a SMART System (Pharmacia Biotech, Stockholm, Sweden). The bound proteins were eluted with 25 mM Tris-HCl buffer, pH 7.5, containing 50 mM NaCl, at a flow rate of 0.1 mL min^−1. The active fractions were collected, pooled, dialyzed against 25 mM Tris-HCl pH 7.5 and stored in the same buffer supplemented with 5% glycerol. Enzyme purification was monitored using Ac-Met-7-amino-4-methylcoumarin (AMC) as substrate. Active fractions were analyzed by SDS-PAGE (12%) in order to evaluate the enrichment of the protein during the various purification steps. The protein was also characterized by Western Blot analysis. Aliquots of protein samples were subjected to SDS-PAGE (8%), and then electroblotted onto PVDF membranes (ImmobilonTM, Millipore, Milan, Italy). Membranes were next incubated with the specific primary antibody (sc-102311, 1:5000, Santa Cruz Biotechnology, USA) and then with the horseradish peroxidase-conjugated secondary antibody for 1 h at 37 °C (1:5000, Santa Cruz Biotechnology, Dallas, TX, USA). The immune complexes formed were visualized by enhanced chemiluminescence and autoradiography, according to the manufacturer’s protocol (Amersham Biosciences, Amersham, UK). Molecular mass of the native enzyme was established by gel filtration chromatography on a Superdex 200 PC 3.2/30 column (Pharmacia Biotech, Stockholm, Sweden), connected to a SMART system (Pharmacia Biotech, Stockholm, Sweden), and calibrated with BioRad gel filtration standards (BioRad, Milano, Italy; code 151-1901). The enzyme inhibition assay was performed on APEH preparation using the selective and potent inhibitor AA74-1 (SML0358, Sigma-Aldrich, Milano, Italy). Mixtures containing appropriate amount of inhibitor (62 µM) and APEH sample (0.7 μg) were pre-incubated for 30 min at 37 °C; then the substrate Ac-Met-7-amino-4-methylcoumarin (AMC) was added to the assay mixture and the enzymatic activity was followed as previously described. Control samples were prepared by pre-incubating the same amounts of APEH without the inhibitor and then assayed following the same procedure.
In total, 10 nmol/200 μL of each molecule was incubated with APEH partially purified from human blood cells (0.7 μg, 24.000 total units) at 37 °C for 48 h in Tris-HCl 25 mM pH 7.5. […]

[2] = system: APEH; experiment: APEH partially purified from human blood cells (0.7 μg, 24.000 total units) in Tris-HCl 25 mM pH 7.5; conditions: 37 °C, up to 48 h

| Molecule | % fragment cleaved on carboxy side of H59 (Ac-...HTH, lacking LVQQA), percentage of the initial substrate [1] | % fragment cleaved on carboxy side of Q62 (Ac-...HTHLVQ, lacking QA), percentage of the initial substrate [1] | % intact peptide left after APEH exposure (percentage of the initial substrate) [1] | % Degradation (overall % of peptide degraded upon exposure to APEH) [1] | cleaved bond [2] | other results |
| --- | --- | --- | --- | --- | --- | --- |
| CC(=O)N[C@@H](CCC(=O)O)C(=O)N[C@@H](Cc1ccc(O)cc1)C(=O)N[C@@H](CC[S+](C)[O-])C(=O)N[C@@H](C)C(=O)N[C@@H](CC[S+](C)[O-])C(=O)N[C@@H](CCC(N)=O)C(=O)N[C@@H](CCCCN)C(=O)N[C@@H](Cc1ccc(O)cc1)C(=O)N1CCC[C@H]1C(=O)N[C@@H](Cc1c[nH]cn1)C(=O)N[C@H](C(=O)N[C@@H](Cc1c[nH]cn1)C(=O)N[C@@H](CC(C)C)C(=O)N[C@H](C(=O)N[C@@H](CCC(N)=O)C(=O)N[C@@H](CCC(N)=O)C(=O)N[C@@H](C)C(N)=O)C(C)C)[C@@H](C)O (stereo partly drawn) [GDF11[48-64] F51A ox] (Ac-EY[Met(O)]A[Met(O)]QKYPHTHLVQQA-NH2) | 11.7% | 3.3% | 85.0% | 15.0% |  |  |
| CC(=O)N[C@@H](CCC(=O)O)C(=O)N[C@@H](Cc1ccc(O)cc1)C(=O)N[C@@H](CC[S+](C)[O-])C(=O)N[C@@H](Cc1ccccc1)C(=O)N[C@@H](CC[S+](C)[O-])C(=O)N[C@@H](CCC(N)=O)C(=O)N[C@@H](CCC(=O)O)C(=O)N[C@@H](Cc1ccc(O)cc1)C(=O)N1CCC[C@H]1C(=O)N[C@@H](Cc1c[nH]cn1)C(=O)N[C@H](C(=O)N[C@@H](Cc1c[nH]cn1)C(=O)N[C@@H](CC(C)C)C(=O)N[C@H](C(=O)N[C@@H](CCC(N)=O)C(=O)N[C@@H](CCC(N)=O)C(=O)N[C@@H](C)C(N)=O)C(C)C)[C@@H](C)O (stereo partly drawn) [GDF11[48-64] K54E ox] (Ac-EY[Met(O)]F[Met(O)]QEYPHTHLVQQA-NH2) | 18.7% | did not undergo cleavage | 81.3% | 18.7% |  |  |
| CC(=O)N[C@@H](CCC(=O)O)C(=O)N[C@@H](C)C(=O)N[C@@H](CC[S+](C)[O-])C(=O)N[C@@H](Cc1ccccc1)C(=O)N[C@@H](CC[S+](C)[O-])C(=O)N[C@@H](CCC(N)=O)C(=O)N[C@@H](CCCCN)C(=O)N[C@@H](Cc1ccc(O)cc1)C(=O)N1CCC[C@H]1C(=O)N[C@@H](Cc1c[nH]cn1)C(=O)N[C@H](C(=O)N[C@@H](Cc1c[nH]cn1)C(=O)N[C@@H](CC(C)C)C(=O)N[C@H](C(=O)N[C@@H](CCC(N)=O)C(=O)N[C@@H](CCC(N)=O)C(=O)N[C@@H](C)C(N)=O)C(C)C)[C@@H](C)O (stereo partly drawn) [GDF11[48-64] Y49A ox] (Ac-EA[Met(O)]F[Met(O)]QKYPHTHLVQQA-NH2) | 11.5% | 10.2% | 78.3% | 21.7% |  | % fragment cleaved on carboxy side of H59 (Ac-...HTH, lacking LVQQA), percentage of the initial substrate ([1]; listed as Y49A): about 11% |
| Ac-EYAFAQKYPHTHLVQQA-NH2 |  |  |  |  |  | not cleaved [2]: 100% intact; N.D. (not degraded) after 48 h |
| Ac-EYAFAQKYPHTHLVQQA-NH2 [GDF11[48-65] M50M52AA, control peptide where the two methionines were replaced with alanine residues] |  |  | 100% |  |  |  |
| Ac-EYM(ox)AM(ox)QKYPHTHLVQQA-NH2 |  |  |  |  | Q62-Q; also recorded: H59-L, major |  |
| Ac-EYM(ox)FM(ox)QEYPHTHLVQQA-NH2 |  |  |  |  |  | not cleaved [2]: did not undergo cleavage on Q62 |

Second part, led by results:

| % fragment cleaved on carboxy side of H59 (Ac-...HTH, lacking LVQQA), percentage of the initial substrate [1] | % fragment cleaved on carboxy side of Q62 (Ac-...HTHLVQ, lacking QA), percentage of the initial substrate [1] | % intact peptide left after APEH exposure (percentage of the initial substrate) [1] | % Degradation (overall % of peptide degraded upon exposure to APEH) [1] | cleaved bond [2] | Molecule | other results |
| --- | --- | --- | --- | --- | --- | --- |
| 16.5% | 0.3% | 83.2% | 16.8% |  | CC(=O)N[C@@H](CCC(=O)O)C(=O)N[C@@H](Cc1ccc(O)cc1)C(=O)N[C@@H](CC[S+](C)[O-])C(=O)N[C@@H](C)C(=O)N[C@@H](C)C(=O)N[C@@H](CCC(N)=O)C(=O)N[C@@H](CCCCN)C(=O)N[C@@H](Cc1ccc(O)cc1)C(=O)N1CCC[C@H]1C(=O)N[C@@H](Cc1c[nH]cn1)C(=O)N[C@H](C(=O)N[C@@H](Cc1c[nH]cn1)C(=O)N[C@@H](CC(C)C)C(=O)N[C@H](C(=O)N[C@@H](CCC(N)=O)C(=O)N[C@@H](CCC(N)=O)C(=O)N[C@@H](C)C(N)=O)C(C)C)[C@@H](C)O (stereo partly drawn) [GDF11[48-64] F51M52AA ox] (Ac-EY[Met(O)]AAQKYPHTHLVQQA-NH2) |  |
| 11.3% | 2.0% | 86.7% | about 13% |  | CC(=O)N[C@@H](CCC(=O)O)C(=O)N[C@@H](Cc1ccc(O)cc1)C(=O)N[C@@H](C)C(=O)N[C@@H](C)C(=O)N[C@@H](CC[S+](C)[O-])C(=O)N[C@@H](CCC(N)=O)C(=O)N[C@@H](CCCCN)C(=O)N[C@@H](Cc1ccc(O)cc1)C(=O)N1CCC[C@H]1C(=O)N[C@@H](Cc1c[nH]cn1)C(=O)N[C@H](C(=O)N[C@@H](Cc1c[nH]cn1)C(=O)N[C@@H](CC(C)C)C(=O)N[C@H](C(=O)N[C@@H](CCC(N)=O)C(=O)N[C@@H](CCC(N)=O)C(=O)N[C@@H](C)C(N)=O)C(C)C)[C@@H](C)O (stereo partly drawn) [GDF11[48-64] M50F51AA ox] (Ac-EYAA[Met(O)]QKYPHTHLVQQA-NH2) | % fragment cleaved on carboxy side of H59 (Ac-...HTH, lacking LVQQA), percentage of the initial substrate ([1]; listed as M50F51AA): about 11%; % Degradation (overall % of peptide degraded upon exposure to APEH) ([1]; listed as GDF11[48-64]ox M50F51AA): 13.3% |
|  |  |  |  | Q62-Q; also recorded: H59-L | Ac-EAM(ox)FM(ox)QKYPHTHLVQQA-NH2 |  |
|  |  |  |  | Q62-Q; also recorded: H59-L, major | Ac-EYAAM(ox)QKYPHTHLVQQA-NH2 |  |
|  |  |  |  | Q62-Q; also recorded: H59-L, major | Ac-EYM(ox)AAQKYPHTHLVQQA-NH2 |  |
